# Measurements from patent US12503432B2, “Ionizable lipids for nucleic acid delivery” (Global Life Sciences Solutions Canada ULC, priority 2019, dated 2025).
# Columns and labels:
# [1] = LNP characterization: size and PDI by dynamic light scattering, mRNA encapsulation efficiency by RiboGreen assay; assay type: physicochemical
# In short: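 Lipid nanoparticles made by microfluidic mixing of mRNA or plasmid in 100 mM sodium acetate with ethanolic lipid mix (Ignite: 3:1 flow ratio, 12 ml/min; Spark: N/P 4, 6 or 10), diluted in PBS pH 7.4. Z-average size and PDI by backscatter DLS (173°, 633 nm, 10 runs × 2 cycles). Encapsulation by RiboGreen assay.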
# [2] = TNS fluorescence assay: experimental pKa of formulated lipid nanoparticles; assay type: physicochemical; conditions: experimental surface pKa of empty LNP, cationic lipid/DSPC/cholesterol/PEG-lipid (50/10/38.5/1.5)
# Procedure: The pKa of each cationic lipid was determined in lipid nanoparticles using an assay based on fluorescence of 6-(p-Toluidino)-2-naphthalenesulfonic acid sodium salt (TNS, Sigma Aldrich), which is a fluorescent probe for the conformational state of proteins^5. Empty lipid nanoparticles comprising of cationic lipid/DSPC/cholesterol/PEG-lipid (50/10/38.5/1.5) in distilled water at a concentration of 3.125 mM total lipid are formulated using NanoAssemblr® Spark™, and were then was characterized for LNP quality on the Zetasizer™ using a 30× dilution with 1×PBS in the low volume cuvette. Lipid nanoparticles were further diluted 4× using distilled water to 0.781 mM total lipid. TNS was prepared as a 25 μM stock solution in distilled water. Then 6.4 μL of diluted LNP samples of 0.781 mM total lipid were mixed with 10 μL of diluted TNS to a final volume of 250 μL with buffer containing 10 mM HEPES, 10 mM MES, 10 mM NH4OAc and 130 mM NaCl where the pH ranged from 3 to 9 in 0.5 pH increments.
# Samples were mixed thoroughly, and the fluorescence intensity was measured at room temperature in a BioTek™ Synergy™ H1 Hybrid Multi-Mode Monochromator™ Fluorescence Microplate Reader using excitation and emission wavelengths of 321 nm and 445 nm respectively. A sigmoidal best fit analysis was applied to the fluorescence data using GraphPad Prism™ software, and the pKa was measured as the pH at half-maximal fluorescence intensity.
# [3] = 5-moU EPO encoded LNPs, IL:DSPC:cholesterol:DMG-PEG (50:10:38.5:1.5), N/P 6
# [4] = OVA encoded LNPs, payload WT OVA, LM02, N/P 8
# [5] = Table 4 LNPs, payload and lipid mix not stated
Structure (SMILES),"Diameter (Z. ave, nm) [1, 3]","Encapsulation Efficiency (%) [1, 3]","Polydispersity Index (PDI) [1, 3]","Diameter (Z. ave, nm) [1, 4]","Encapsulation Efficiency (%) [1, 4]","Polydispersity Index (PDI) [1, 4]","Diameter (Z. ave, nm) [1, 5]","Encapsulation Efficiency (%) [1, 5]","Polydispersity Index (PDI) [1, 5]",pKa [2]
CC/C=C\CC1C(CC(=O)OCC(COCCCCCCCC/C=C\C/C=C\CCCCC)OCCCCCCCC/C=C\C/C=C\CCCCC)CCC1OC(=O)C1CCN(C)CC1 (stereo not shown) [PNI 132],70.3 nm,98.2%,0.04,82.6 nm,97.1%,0.07,74.5 nm,98.2%,0.06,6.1
CC/C=C\CC1C(CC(=O)OCC(COCCCCCCCC/C=C\C/C=C\CCCCC)OCCCCCCCC/C=C\C/C=C\CCCCC)CCC1OC(=O)CCCN(C)C (stereo not shown) [PNI 101],97.7 nm,93.4%,0.08,93.2 nm,98.4%,0.09,74.10 nm,93.0%,0.156,6.37
CC/C=C\CC1C(CC(=O)OCC(COCCCCCCCC/C=C\C/C=C\CCCCC)OCCCCCCCC/C=C\C/C=C\CCCCC)CCC1OC(=O)CC1CCN(C)C1 (stereo not shown) [PNI 557],71.8 nm,98.9%,0.08,,,,95.4 nm,98.7%,0.02,6.7
CC/C=C\CC1C(CC(=O)OCC(COCCCCCCCC/C=C\C/C=C\CCCCC)OCCCCCCCC/C=C\C/C=C\CCCCC)CCC1OC(=O)CCCN1CCCC1 (stereo not shown) [PNI 558],73.2 nm,98.9%,0.03,,,,91.2 nm,98.7%,0.07,6.28

# More lines, now with the values ahead:
"Diameter (Z. ave, nm) [1, 3]","Encapsulation Efficiency (%) [1, 3]","Polydispersity Index (PDI) [1, 3]","Diameter (Z. ave, nm) [1, 4]","Encapsulation Efficiency (%) [1, 4]","Polydispersity Index (PDI) [1, 4]","Diameter (Z. ave, nm) [1, 5]","Encapsulation Efficiency (%) [1, 5]","Polydispersity Index (PDI) [1, 5]",pKa [2],Structure (SMILES)
63.1 nm,98.7%,0.06,76.7 nm,97.7%,0.05,60.5 nm,98.4%,0.06,5.7,CC/C=C\CC1C(CC(=O)OC(CCCCCCCCC2CC2CCCCCCCC)CCCCCCCCC2CC2CCCCCCCC)CCC1OC(=O)C1(C)CCN(C)CC1 (stereo not shown) [PNI 560]
62.5 nm,97.4%,0.06,,,,71.2 nm,96.4%,0.05,5.27,CC/C=C\CC1C(CC(=O)OC(CCCCCCCCC2CC2CCCCCCCC)CCCCCCCCC2CC2CCCCCCCC)CCC1OC(=O)CCN(C)C (stereo not shown) [PNI 549]
59.0 nm,98.6%,0.04,,,,63.9 nm,98.4%,0.07,5.91,CCCCCCCCC1CC1CCCCCCCCOCC(COC(=O)CC1CCC(OC(=O)CCCN(C)C)C1CC1CC1CC)OCCCCCCCCC1CC1CCCCCCCC (stereo not shown) [PNI 545]
